Laboratory results taken from paper PMC7244523, “A Cell-based Screen in Actinomyces oris to Identify Sortase Inhibitors” (Scientific Reports, 2020).
Converted amounts (≈) assume the structure as drawn.

Experiments:
[1] = system: A. oris MG-1 (wild-type) versus ΔsrtA/ΔgspA strain; assay: High-throughput cell-based growth screen and counter-screen (differential growth); set-up: species or system Actinomyces oris; details: differential effect on wild-type MG-1 and ΔgspAΔsrtA strains in the HTS; 10 µM, in duplicate; 100 = extreme difference, 0 = none
Experimental: In the primary screen, a total of 200,834 small molecules were tested for their ability to impair A. oris MG-1 growth. Cells were added to an optical density (OD600) of 0.01 in media containing 10 µM of each molecule, followed by a 15 hour incubation at 37 °C and end-point OD600 measurement. The growth effect of each molecule was normalized and expressed as a percent growth relative to the DMSO-only control (see Methods). A total of 1,904 molecules were classified as preliminary hits (0.95% of the molecules tested), as they reduced MG-1 growth after 15 hours by at least 34%, or 2.75 standard deviations below the average. The preliminary hits were then subjected to a counter-screen in which their growth effects on ΔsrtA/ΔgspA were determined. In order to eliminate potentially erroneously identified preliminary hits, the counter-screen and preliminary screen was performed in duplicate for the 1,904 preliminary hit molecules. A molecule was deemed as a hit if it caused greater than 15% differential growth effect in duplicate when the MG-1 and ΔsrtA/ΔgspA strains were compared. […] Data is plotted as the percentage of growth inhibition for each molecule (see Methods).
A total of 200,834 small molecule compounds (Molecular Screening Shared Resource, UCLA) were dissolved in 100% Omnisolv methylsulfoxide (MilliporeSigma MX1456P-6) and stored in 384-well polypropylene plates. Actinomyces oris MG-1 and ΔgspAΔsrtA were streaked out on BHI agar plates containing 50 µg/mL kanamycin and grown at 37 °C for 48 hours to allow single colonies to grow. Cultures were started from 2–3 colonies in BHI with 50 µg/mL kanamycin and allowed to grow until an OD600 between 0.1–0.4. Meanwhile, 384-well plates were filled with 25 µL BHI broth with 100 µg mL^−1 kanamycin (columns 1–22) or 200 µg mL^−1 Penicillin G (positive control, columns 23–24). Five hundred nanoliters of small molecules were transferred into the media (columns 3–22) using the Biomex FX^P automated work station with a 384-well pin tool. Precultures were diluted to an OD600 of 0.02 in 1 L BHI broth without antibiotics. Twenty five microliters of cell culture was immediately aliquoted into plates containing 25 µL media, antibiotics, and small-molecules using a Multidrop (Thermo LabSystems), resulting in 50 µg mL^−1 kanamycin and 10 µM small molecules with 1% DMSO or 100 µg mL^−1 Penicillin G. Plates were immediately lidded and placed into a humidified Cytomat 6001 incubator at 37 °C and allowed to grow for 15.5 hours. Following incubation, plates were removed from the Cytomat using a Thermo Spinnaker robotic arm on a rail, de-lidded, and placed into an EnVision high-speed plate reader for optical density measurement at 620 nm.
Raw data obtained from the screen was formatted in-house to upload to the Collaborative Drug Discovery Vault (www.collaborativedrug.com). Individual optical density readings were converted to a percent growth value ([ODsample-ODPositive control]/[ODNegative Control Average- ODPositive control]) and percent growth inhibition (1-percent growth). The Z-factors for the individual molecules were determined. Molecules with a Z-factor less than or equal to -2.75 were considered preliminary hits to advance forward a generous collection of preliminary hit molecules. Five microliters of each of the 1904 preliminary hit molecules were re-arrayed into new 384-well polypropylene plates. Each of the 1904 preliminary hits were assayed against both the MG-1 and ΔgspAΔsrtA strains in duplicate, on two separate days. Percent difference of growth was calculated according to the equation 100–100[(ODMG-1, Sample-ODMG-1, Positive Control)/ODΔgspAΔsrtA, Sample-ODΔgspAΔsrtA, Positive Control)]/[(ODMG-1, Average-ODMG-1, Positive Control)/ODΔgspAΔsrtA, Average-ODΔgspAΔsrtA, Positive Control)]. […] Molecules were ranked according to their relative growth.

A. oris MG-1 = assay: Minimum inhibitory concentration, MG-1 strain; assay type: cell-based; details: Actinomyces oris, MG1; BHI, 96-well plates, 18 hours
Experimental: (§1) Two validation assays were performed for each hit molecule that measured: (i) the minimum inhibitory concentration (MIC) required to prevent growth of the MG-1 and ΔsrtA/ΔgspA strains, and (ii) their in vitro inhibitory activity against the enzymatic activity of the A. oris and S. aureus sortase enzymes. Initially, the selective growth effect originally observed in the HTS that used 384-well plates was more rigorously defined by determining each molecule’s MIC value for the MG-1 and ΔsrtA/ΔgspA strains. Cells were cultured in 100 µL media containing 2-fold dilutions of each small molecule between 320 µM and 0.039 µM (approximately 134 µg mL^−1 to […]).
(§2) Minimum inhibitory concentration (MIC) values were determined for molecules 1–6 according to the Clinical Laboratory Standard Institutes’ (CLSI) Methods for Dilution Antimicrobial Susceptibility Tests for Bacteria that Grow Aerobically, Approved standards-ninth edition; M07-A9 Vol. 32 No. 2 with the following alterations. Overnight cultures of MG-1 and ΔgspAΔsrtA were diluted to OD600 values of 0.01 before being added to BHI containing the appropriate molecule in 96-well plates. Mueller-Hinton broth was not usable because A. oris is a fastidious bacterium. Plates were sealed with Breatheasy seals and incubated for 18 hours, as A. oris has a doubling time of 2 hours. Plate seals were removed and OD600 values measured. Each plate was run with a positive control (cells, media, and Penicillin G), negative control (media and cells only), and contamination control (media only).

A. oris ΔgspAΔsrtA = assay: Minimum inhibitory concentration, ΔgspA/ΔsrtA strain; assay type: cell-based, Actinomyces oris; details: BHI, 96-well plates, 18 hours
Experimental: as §1, §2

AoSrtA = AoSrtA (Actinomyces oris, UniProt A0A0X8K1J2); assay: FRET-based in vitro sortase activity assay, AoSrtA; assay type: biochemical; details: for Inhibition of AoSrtA in vitro: FRET assay
Sequence of AoSrtA (A0A0X8K1J2 entry or part of it): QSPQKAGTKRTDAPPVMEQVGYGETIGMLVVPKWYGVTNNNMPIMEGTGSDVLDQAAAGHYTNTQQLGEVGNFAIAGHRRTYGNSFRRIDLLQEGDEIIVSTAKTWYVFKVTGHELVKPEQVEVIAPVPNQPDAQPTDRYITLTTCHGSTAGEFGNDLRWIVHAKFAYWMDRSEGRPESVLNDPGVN
Experimental: (§3) The ability of the hit molecules to inhibit sortase activity was measured in vitro using an established FRET-based assay[13] that measures the ability of each enzyme to cleave a fluorogenic peptide substrate; Abz-LAQTG-Dap(Dnp)-NH2 and Abz-LPETG-Dap(Dnp)-NH2, substrates for ^AoSrtA and ^SaSrtA, respectively. Each enzyme cleaves between the threonine and glycine bond in these peptides, leading to a measurable increase in fluorescence (see Methods). The IC50 value of each compound was determined for both the ^AoSrtA and ^SaSrtA enzymes.
(§4) IC50 values for the six hit molecules against the ^AoSrtA and ^SaSrtA enzymes were determined as previously described, with some modifications. Briefly, molecules 1–6 were serial diluted 2-fold (from 1.25 mM to 2.44 µM, 500 µM to 0.98 µM final assay concentration) into 25 µM ^AoSrtA or ^SaSrtA (final assay concentration 10 µM) in buffer A (20 mM HEPES pH 7, 5 mM CaCl2, 0.05% TWEEN, 30% DMSO). The final DMSO concentration was […] in the assay. Samples were incubated 1 hour at room temperature and aliquoted into a 384-well plate (EK-30892). Thirty microliters of FRET peptide (Peptide 2.0) in buffer B (20 mM HEPES pH 7, 5 mM CaCl2, 0.05% TWEEN), […] for ^SaSrtA or Abz-LAQTG-Dap(Dnp)-NH2 for ^AoSrtA was added and the plate was immediately placed into a Flexstation II plate reader (Molecular Devices) and fluorescence was recorded at 335/420 nm excitation/emission wavelengths after 5 seconds of plate shaking to mix the reaction components. Plate fluorescence was measured over the course of 30 minutes.

SaSrtA = SaSrtA (Staphylococcus aureus, UniProt Q2FV99); assay: FRET-based in vitro sortase activity assay, SaSrtA; assay type: biochemical
Sequence of SaSrtA (Q2FV99 whole entry): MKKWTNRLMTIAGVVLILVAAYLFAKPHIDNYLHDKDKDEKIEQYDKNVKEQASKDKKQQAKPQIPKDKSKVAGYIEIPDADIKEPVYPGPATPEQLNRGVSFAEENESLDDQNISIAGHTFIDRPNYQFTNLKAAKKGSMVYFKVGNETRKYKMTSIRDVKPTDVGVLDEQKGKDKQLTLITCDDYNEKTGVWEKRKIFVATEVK
Experimental: as §3, §4

A. oris ΔgspA = assay: Cell fractionation and immunoblot with α-FimA (type 2 pilus); assay type: cell-based, Actinomyces oris; details: 10 µM, 3 hours, ΔgspA strain, versus control
Experimental: To understand the physiological effects that these molecules have on the display of pili and surface proteins on the surface of A. oris, we grew cells with 10 µM of each hit molecule and assessed sortase activity by western blot and electron microscopy as previously reported. To avoid a confounding problem that inhibiting ^AoSrtA causes cell arrest, we performed the experiments in a mutant devoid of gspA; the aforementioned genetic suppressor of sortase lethality.
(§5) Cell fractionation and Western blotting were followed according to a published protocol. Briefly, the cultures of A. oris strains grown in BHI at 37 °C until OD600 of 0.25 were aliquoted, and bacterial aliquots were treated with 10 µM of individual sortase inhibitors for 3 hours. Bacterial cultures were then normalized to equal OD600, and cells were fractionated into culture medium (S), cell wall (W), and protoplast fractions. Isolated fractions were subjected to protein precipitation by 7.5% trichloroacetic acid, followed by washing with cold acetone, except for the protoplast fractions. Protein samples were dissolved in hot sodium dodecyl sulfate (SDS)-containing sample buffer, separated by 3–12% Tris-glycine gradient gels, and subjected to immunoblotting with specific antisera (α-FimA, 1:10,000 dilution; α-GspA, α-MdbA, α-SrtC2 and α-SrtA, 1:4000 dilution), followed by chemo-luminescence detection.

A. oris ΔlcpA = assay: Cell fractionation and immunoblot with α-GspA (cell wall anchoring of GspA); assay type: cell-based, Actinomyces oris; details: 10 µM, ΔlcpA strain; for GspA polymers (immunoblot α-GspA): 3 hours; for GspA display / cell wall associated GspA: Fig. 4B
Experimental: (§6) To examine if these molecules inhibit cell wall anchoring of surface proteins (e.g. GspA), we similarly treated cells devoid of lcpA, i.e. ΔlcpA, another suppressor of srtA[46]. […] To corroborate these observations, we subjected A. oris cells of ΔgspA and Δlcp strains to 10 μM of each molecule (3, 4 and 6) and studied pilus display with transmission electron microscopy (TEM), whereby A. oris cells were immobilized on nickel grids and stained with 1% uranyl acetate prior to viewing by an electron microscope.
as §5

[2] = system: A. oris ΔgspA and ΔlcpA strains; assay: Pilus display by transmission electron microscopy; assay type: cell-based, Actinomyces oris; details: 10 μM; for Pilus assembly at the cell pole (TEM): ΔgspA or ΔlcpA strain, versus untreated control; for Pili display (TEM): ΔgspA strain, Fig. 5A–D
Experimental: as §6
To observe cell morphology by negative staining, A. oris cells harvested after inhibitor treatment were washed once with PBS and suspended in 0.1 M NaCl. A drop of 7 µL of bacterial suspension was placed onto carbon-coated nickel grids and stained with 1% uranyl acetate. Samples were examined using a JEOL JEM1200.

[3] = IC50 (A. oris), AoSrtA 10 µM, Abz-LAQTG-Dap(Dnp)-NH2, 1 hour preincubation
[4] = IC50 values, range over compounds, range for both AoSrtA and SaSrtA, in µM

| SMILES | Differential Growth [1] [%] | MIC (A. oris MG-1) [µg/mL] | MIC (ΔgspA/ΔsrtA) (A. oris ΔgspAΔsrtA) [µg/mL] | Inhibition of AoSrtA in vitro (AoSrtA) | IC50 (AoSrtA; [3]) [µM] | IC50 (SaSrtA) [µM] | IC50 (AoSrtA; [4]) [µM] | FimA polymers / type 2 pilus production (immunoblot α-FimA) (A. oris ΔgspA) | GspA polymers (immunoblot α-GspA) (A. oris ΔlcpA) | GspA display / cell wall associated GspA (A. oris ΔlcpA) | Pilus assembly at the cell pole (TEM) [2] | Pili display (TEM) [2] |
| --- | --- | --- | --- | --- | --- | --- | --- | --- | --- | --- | --- | --- |
| Cc1ccc(S(=O)(=O)Cc2nc3cc(-c4ccccc4)sc3c(=O)[nH]2)cc1 [Compound 1] | 65.7 ± 0.5 | 2 (≈ 5.04 µM) | 4.0 (≈ 10.1 µM) | failed to inhibit | > 479 | 202 | – | – | – | – | – | – |
| Cc1nc(COc2ccc(F)cc2)sc1CC(=O)Nc1nc2c(s1)CC(C)CC2 (stereo not drawn) [Compound 6] | 71.8 ± 16.5 | 2.1 (≈ 4.87 µM) | 8.4 (≈ 19.5 µM) | – | 139 | 125 | 73 to 170 | little effect on type 2 pilus production | no GspA polymers were observed | significantly diminishes GspA display | significant reduction of pilus assembly at the cell pole | only modestly effects pili display |
| CCc1ccc2nc(N(Cc3cccnc3)C(=O)c3ccc([N+](=O)[O-])o3)sc2c1 [Compound 3] | 17.5 ± 3.5 | 8.2 (≈ 20.1 µM) | >130 | – | 73.5 | 220 | 73 to 170 | decreased FimA polymers | no GspA polymers were observed | decreased amounts of cell wall associated GspA | significant reduction of pilus assembly at the cell pole | completely absent |
| O=C(c1cc(-c2ccc(F)cc2)n[nH]1)N1CC(c2nc(-c3ccccc3)no2)C1 [Compound 5] | 96.2 ± 0.3 | 1 (≈ 2.57 µM) | 2.0 (≈ 5.14 µM) | failed to inhibit | > 488 | 282 | – | – | – | – | – | – |
| COc1ccc2nc(N(Cc3ccccc3)C(=O)c3ccc([N+](=O)[O-])o3)sc2c1 [Compound 4] | 38.5 ± 0.5 | 16.4 (≈ 40.1 µM) | >130 | – | 171 | 488 | 73 to 170 | decreased FimA polymers | no GspA polymers were observed | decreased amounts of cell wall associated GspA | significant reduction of pilus assembly at the cell pole | diminished |
| Cc1cc(NS(=O)(=O)c2ccc(C(C)(C)C)cc2)n(C2CCS(=O)(=O)C2)n1 (stereo not drawn) [Compound 2] | 96.2 ± 0.3 | 0.5 (≈ 1.21 µM) | 2.1 (≈ 5.1 µM) | failed to inhibit | > 486 | > 486 | – | – | – | – | – | – |
